Assays:
Type in all cases: cell-based
[1] = system: β-cells (NG bright) of human islets; test: β-cell apoptosis after delivery of noxious stimuli (TMRE staining in NG bright subset, FACS); details: SNP 0.5 mM 18 h, H2O2 200 μM 18 h, IL-1β 50 U/ml alone or with TNF-α 1000 U/ml and IFN-γ 1000 U/ml 24 h, vs absence of stimulus
Description: Determination of fractional β-cell viability. For assessment of apoptosis, single cell suspensions were incubated with 1 μM Newport Green PDX acetoxymethylether (NG; Molecular Probes) and 100 ng/ml of tetramethylrhodamine ethyl ester (TMRE; Molecular Probes) for 30 min at 37° C. in PBS without Ca^2+ and Mg^2+. Newport Green allows for the definition of cell subsets according to zinc content (18). TMRE selectively binds to mitochondrial membranes, allowing for detection of apoptosis (that results in decreased staining) (19-20). After washing, cells were stained with 7-aminoactinomycin D (7-AAD; Molecular Probes), which binds to DNA when cell membrane permeability is altered after cell death. Cell suspensions were analyzed (minimum 3.0×10^4 events) using a FACScan cytometer (Becton Dickinson, Mountain View, Calif.) with the CellQuest software.
Delivery of pro-apoptotic stimuli to islet cells: Islets were treated with selected compounds to induce apoptosis. The nitric oxide (NO) donor sodium nitroprusside (Baxter Healthcare Corporation, Deerfield, Ill.) was used at 0.5 mM for 18 hours. Hydrogen peroxide (H2O2; Sigma) was used at 200 μM for 18 hours. IL-1-β (50 U/ml) alone or in combination with TNF-α (1000 U/ml) and IFN-γ (1000 U/ml) was used for 24 hours. […]

[2] = system: PDC (CA19-9+ ductal cells) of human islet preparations; test: Simultaneous β-cell/PDC viability by FACS after noxious stimuli: ductal cell subset; details: 24 h, SNAP 0.5 mM, H2O2 200 μM, IL-1β 50 U/ml + TNF-α 1,000 U/ml + IFN-γ 1,000 U/ml, vs absence of stimulus
Description: (§1) Assessment of PDC-specific viability: Single cell suspensions were incubated for 30 min at 37° C. in phosphate buffered saline (PBS) without Ca^2+ and Mg^2+ with Newport Green PDX acetoxymethylether (NG; […]) and tetramethylrhodamineethylester (TMRE; 100 ng/ml; both from Molecular Probes). Cells were incubated with anti-CA19-9 antibody (1:100) for 15 min followed by goat anti-mouse antibody (Alexa-647). After washing, cells were stained with 7-aminoactinomycin D (7-AAD; Molecular Probes), a marker of cell death. Cell suspensions were analyzed (minimum 3.0 104 events) using a FACScan cytometer with the CellQuest-pro software (Becton Dickinson, Mountain View, Calif.). We have evaluated apoptosis selectively in the NG^bright and CA19-9+ cells according to the scheme in FIGS. 19A-E. After counting, dead cells (7-AAD+) were excluded from further analysis, live β-cells (NG^bright) and PDC (CA19-9^+) were analyzed for mitochondrial membrane potential (TMRE), which allows discriminating between healthy (TMRE^+) and apoptotic (TMRE^−) cells. […]

[3] = system: β-cells (NG bright) of human islets; test: Simultaneous β-cell/PDC viability by FACS after noxious stimuli: β-cell subset; details: human islet cells, 24 h; SNAP 0.5 mM; H2O2 200 μM; IL-1β 50 U/ml + TNF-α 1,000 U/ml + IFN-γ 1,000 U/ml; vs absence of stimulus
Description: as §1

Molecule | percentage of apoptotic β-cells (TMRE−, NG bright) [1] | apoptosis by TMRE staining in ductal cell (PDC) subset [2] | apoptosis by TMRE staining in β-cell subset [3]
IL-1β: cytokine used as pro-apoptotic stimulus on islets | increase in the percentage of apoptotic β-cells | – | –
CC(=O)NC(C(=O)O)C(C)(C)SN=O (racemic) [SNAP, S-Nitroso-N-acetyl-DL-penicillamine] | – | increased apoptosis | increased apoptosis
OO [H2O2, Hydrogen peroxide] | increase in the percentage of apoptotic β-cells | increased apoptosis | increased apoptosis
